In ChEMBL document CHEMBL5344418, “Recent developments in antimalarial activities of 4-aminoquinoline derivatives” (Eur J Med Chem, 2023):
pIC50: −log10 of the molar value.

Assays:
[1] = test system: Plasmodium falciparum; assay: Antimalarial activity against chloroquine-sensitive Plasmodium falciparum 3D7 assessed as reduction in parasite growth incubated for 72 hrs by SYBR Green staining based fluorescence analysis; assay type: functional, organism-based; conditions: 3D7, 72 h
[2] = test system: Plasmodium falciparum; assay: Antimalarial activity against chloroquine-resistant Plasmodium falciparum K1 assessed as reduction in parasite growth incubated for 72 hrs by SYBR Green staining based fluorescence analysis; assay type: functional, organism-based; conditions: K1, 72 h
[3] = Cytotoxicity against African green monkey Vero cells assessed as reduction in cell viability incubated for 72 hrs by MTT assay; assay type: toxicity, cell-based; conditions: chlorocebus sabaeus
[4] = Cytotoxicity against African green monkey Vero cells assessed as reduction in cell viability incubated for 24 hrs by fluorescence based analysis; assay type: toxicity; conditions: African green monkey (Chlorocebus sabaeus)
[5] = test system: Hemozoin; assay: Inhibition of Beta-hematin formation in Plasmodium falciparum 3D7 by spectrophotometric analysis
[6] = test system: Hemozoin; assay: Inhibition of Beta-hematin formation in Plasmodium falciparum K1 by spectrophotometric analysis
[7] = test system: Plasmodium falciparum; assay: Antiplasmodial activity against chloroquine-sensitive Plasmodium falciparum NF54 by lactate dehydrogenase assay; assay type: functional, organism-based
[8] = Cytotoxicity against Chinese hamster CHO cells assessed as reduction in cell viability by MTT assay; assay type: toxicity, cell-based; conditions: Chinese hamster (Cricetulus griseus)
[9] = test system: Plasmodium falciparum; assay: Antiplasmodial activity against chloroquine-resistant Plasmodium falciparum W2 assessed as parasitic growth inhibition incubated for 72 hrs by SYBR Green staining based fluorescence analysis; assay type: functional, organism-based; conditions: W2, 72 h

CN(CCCN1CCCC1)c1ccnc2cc(Cl)ccc12
pIC50 [1]: 6.72 | pIC50 [2]: 6.96 | CC50 at 72 h [3]: 80200 nM

CC(C)CC(CN1CCN(C)CC1)N(C)c1ccnc2cc(Cl)ccc12 (stereo unspecified)
pIC50 [1]: 7.22 | pIC50 [2]: 6.59 | CC50 at 72 h [3]: 36600 nM

O=C1c2ccc(N3CCOCC3)cc2C(=O)N1CCCCCCNc1ccnc2cc(Cl)ccc12
IC50 at 24 h [4]: 25400 nM

Clc1ccc2c(NCCn3cncc3C3CCCCC3)ccnc2c1
pIC50 [5]: 6.72 | pIC50 [6]: 6.28

O=C1c2cccc(N3CCCCC3)c2C(=O)N1CCCCNc1ccnc2cc(Cl)ccc12
IC50 at 24 h [4]: 54100 nM

Clc1ccc2c(NCCn3cncc3-c3ccc4ccccc4n3)ccnc2c1
pIC50 [5]: 5.30 | pIC50 [6]: 5.88

CN(c1ccnc2cc(C(F)(F)F)ccc12)C(Cc1ccccc1)CN1CCOCC1 (stereo unspecified)
pIC50 [1]: 5.41

CC(C)(C)c1cncn1CCNc1ccnc2cc(Cl)ccc12
pIC50 [5]: 6.85 | pIC50 [6]: 6.30

O=C1c2ccc(N3CCN(CCO)CC3)cc2C(=O)N1CCNc1ccnc2cc(Cl)ccc12
IC50 at 24 h [4]: 26000 nM

CCN(CC)CC(Cc1ccccc1)N(C)c1ccnc2cc(C(F)(F)F)ccc12 (stereo unspecified)
pIC50 [1]: 5.76

Clc1ccc2c(NCCn3cncc3-c3ccco3)ccnc2c1
pIC50 [5]: 6.54 | pIC50 [6]: 6.01

Clc1ccc2c(NCCn3cncc3-c3cccc4ccccc34)ccnc2c1
pIC50 [5]: 5.30 | pIC50 [6]: 6.04

CCN(CC)CC(CC(C)C)N(C)c1ccnc2cc(Cl)ccc12 (stereo unspecified)
pIC50 [1]: 6.64 | pIC50 [2]: 6.27 | CC50 at 72 h [3]: 60300 nM

CC(C)CC(CN1CCOCC1)N(C)c1ccnc2cc(C(F)(F)F)ccc12 (stereo unspecified)
pIC50 [1]: 5.57 | pIC50 [2]: 5.65 | CC50 at 72 h [3]: 68600 nM

COc1ccc(-c2cncn2CCNc2ccnc3cc(Cl)ccc23)cc1
pIC50 [5]: 5.30 | pIC50 [6]: 5.75

Cc1ccsc1-c1cncn1CCNc1ccnc2cc(Cl)ccc12
pIC50 [5]: 5.30 | pIC50 [6]: 6.34

Clc1ccc2c(NCCn3cncc3C3CCCC3)ccnc2c1
pIC50 [5]: 7.10 | pIC50 [6]: 6.47

CN(CCCN1CCCC1)c1ccnc2cc(C(F)(F)F)ccc12
pIC50 [1]: 7.05 | pIC50 [2]: 6.51 | CC50 at 72 h [3]: 78200 nM

O=C1c2ccc(N3CCN(CCO)CC3)cc2C(=O)N1CCCCNc1ccnc2cc(Cl)ccc12
IC50 at 24 h [4]: 24600 nM

Oc1ccc(-c2cncn2CCNc2ccnc3cc(Cl)ccc23)cc1
pIC50 [5]: 5.42 | pIC50 [6]: 5.30

CN(c1ccnc2cc(Cl)ccc12)C(Cc1ccccc1)CN1CCCC1 (stereo unspecified)
pIC50 [1]: 7.22 | pIC50 [2]: 7.00 | CC50 at 72 h [3]: 57800 nM

FC(F)(F)c1ccc(-c2cncn2CCNc2ccnc3cc(Cl)ccc23)cc1
pIC50 [5]: 6.68 | pIC50 [6]: 6.35

Clc1ccc2c(NCCn3cncc3-c3c[nH]c4ccccc34)ccnc2c1
pIC50 [5]: 5.30 | pIC50 [6]: 5.77

CN(c1ccnc2cc(C(F)(F)F)ccc12)C(Cc1ccccc1)CN1CCCCC1 (stereo unspecified)
pIC50 [1]: 5.86

O=C1c2ccc(N3CCOCC3)cc2C(=O)N1CCCCNc1ccnc2cc(Cl)ccc12
IC50 at 24 h [4]: 26900 nM

Cc1ccc(/C=C/C(=O)c2ccc(S(=O)(=O)NCCNc3cncc4cc(Cl)ccc34)cc2)cc1
pIC50 [7]: 6.41 | pIC50 [8]: 4.60

CN(c1ccnc2cc(Cl)ccc12)C(Cc1ccccc1)CN1CCOCC1 (stereo unspecified)
pIC50 [1]: 5.92 | pIC50 [2]: 5.86 | CC50 at 72 h [3]: 33500 nM

CC(C)CC(CN1CCCCC1)N(C)c1ccnc2cc(C(F)(F)F)ccc12 (stereo unspecified)
pIC50 [1]: 5.70 | pIC50 [2]: 5.69 | CC50 at 72 h [3]: 42600 nM

Clc1ccc2c(NCCn3cncc3-c3cccc(Oc4ccccc4)c3)ccnc2c1
pIC50 [5]: 5.30 | pIC50 [6]: 5.58

O=C(/C=C/c1ccccc1Br)c1ccc(S(=O)(=O)NCCCNc2cncc3cc(Cl)ccc23)cc1
pIC50 [7]: 7.00 | pIC50 [8]: 4.36

CN(c1ccnc2cc(Cl)ccc12)C(Cc1ccccc1)CN1CCCCC1 (stereo unspecified)
pIC50 [1]: 6.55 | pIC50 [2]: 6.31 | CC50 at 72 h [3]: 69700 nM

COc1ccc(/C=C/C(=O)c2ccc(S(=O)(=O)NCCCNc3cncc4cc(Cl)ccc34)cc2)cc1OC
pIC50 [7]: 6.49 | pIC50 [8]: 4.36

Clc1ccc2c(NCCn3cncc3-c3ccc[nH]3)ccnc2c1
pIC50 [5]: 5.30 | pIC50 [6]: 5.94

O=C1c2cccc(N3CCOCC3)c2C(=O)N1CCCCCCNc1ccnc2cc(Cl)ccc12
IC50 at 24 h [4]: 50800 nM

O=C(/C=C/c1c(F)cccc1F)c1ccc(S(=O)(=O)NCCCNc2cncc3cc(Cl)ccc23)cc1
pIC50 [7]: 6.27 | pIC50 [8]: 4.56

O=C(/C=C/c1ccccc1)c1ccc(S(=O)(=O)NCCCNc2cncc3cc(Cl)ccc23)cc1
pIC50 [7]: 5.78 | pIC50 [8]: < 4.30

CCN(CC)CC(Cc1ccccc1)N(C)c1ccnc2cc(Cl)ccc12 (stereo unspecified)
pIC50 [1]: 6.68 | pIC50 [2]: 6.48 | CC50 at 72 h [3]: 79000 nM

Fc1ccc(-c2cncn2CCNc2ccnc3cc(Cl)ccc23)cc1
pIC50 [5]: 5.30 | pIC50 [6]: 5.52

N#Cc1ccc(-c2cncn2CCNc2ccnc3cc(Cl)ccc23)cc1
pIC50 [5]: 5.30 | pIC50 [6]: 6.14

O=C1c2ccc(N3CCCCC3)cc2C(=O)N1CCCCNc1ccnc2cc(Cl)ccc12
IC50 at 24 h [4]: 27000 nM

O=C(/C=C/c1ccc(F)c(F)c1)c1ccc(S(=O)(=O)NCCCNc2cncc3cc(Cl)ccc23)cc1
pIC50 [7]: 5.59 | pIC50 [8]: < 3.52

O=C(/C=C/c1ccc(OC(F)(F)F)cc1)c1ccc(S(=O)(=O)NCCCNc2cncc3cc(Cl)ccc23)cc1
pIC50 [7]: 6.29 | pIC50 [8]: 4.36

O=C1c2ccc(N3CCN(CCO)CC3)cc2C(=O)N1CCCNc1ccnc2cc(Cl)ccc12
IC50 at 24 h [4]: 25300 nM

COc1ccc(/C=C/C(=O)c2ccc(S(=O)(=O)NCCCNc3cncc4cc(Cl)ccc34)cc2)cc1
pIC50 [7]: 6.96 | pIC50 [8]: 4.36

COc1ccc(/C=C/C(=O)c2ccc(S(=O)(=O)NCCNc3cncc4cc(Cl)ccc34)cc2)cc1
pIC50 [7]: 6.31 | pIC50 [8]: 4.76

COc1ccc(/C=C/C(=O)c2ccc(S(=O)(=O)NCCNc3cncc4cc(Cl)ccc34)cc2)cc1OC
pIC50 [7]: 6.48 | pIC50 [8]: 4.35

O=C1c2ccc(N3CCN(CCO)CC3)cc2C(=O)N1CCCCCCNc1ccnc2cc(Cl)ccc12
IC50 at 24 h [4]: 23300 nM

O=C1c2cccc(N3CCCCC3)c2C(=O)N1CCCCCCNc1ccnc2cc(Cl)ccc12
IC50 at 24 h [4]: 204000 nM

CN(CCCN1CCCCC1)c1ccnc2cc(Cl)ccc12
pIC50 [1]: 7.40 | pIC50 [2]: 7.22 | CC50 at 72 h [3]: 107000 nM

CCN(CC)CC(CC(C)C)N(C)c1ccnc2cc(C(F)(F)F)ccc12 (stereo unspecified)
pIC50 [1]: 5.42 | pIC50 [2]: 5.60 | CC50 at 72 h [3]: 52000 nM

CN(c1ccnc2cc(C(F)(F)F)ccc12)C(Cc1ccccc1)CN1CCCC1 (stereo unspecified)
pIC50 [1]: 6.17 | pIC50 [2]: 5.75 | CC50 at 72 h [3]: 39200 nM

CC(C)c1ccc(-c2cncn2CCNc2ccnc3cc(Cl)ccc23)cc1
pIC50 [5]: 5.55 | pIC50 [6]: 6.54

O=C1c2cccc(N3CCOCC3)c2C(=O)N1CCCCNc1ccnc2cc(Cl)ccc12
IC50 at 24 h [4]: 108000 nM

CC(C)CC(CN1CCOCC1)N(C)c1ccnc2cc(Cl)ccc12 (stereo unspecified)
pIC50 [1]: 5.94 | pIC50 [2]: 5.92 | CC50 at 72 h [3]: 50800 nM

Clc1ccc2c(NCCn3cncc3-c3ccc4c(c3)OCCO4)ccnc2c1
pIC50 [5]: 6.28 | pIC50 [6]: 5.62

CN(CCCN1CCOCC1)c1ccnc2cc(C(F)(F)F)ccc12
pIC50 [1]: 6.06 | pIC50 [2]: 6.09 | CC50 at 72 h [3]: 200000 nM

CC(C)CC(CN1CCCC1)N(C)c1ccnc2cc(Cl)ccc12 (stereo unspecified)
pIC50 [1]: 7.10 | pIC50 [2]: 6.74 | CC50 at 72 h [3]: 47000 nM

OC(c1cc(C(F)(F)F)nc2c(C(F)(F)F)cccc12)C1CCCCN1 (stereo unspecified) [MEFLOQUINE]
pIC50 [9]: 7.62

CC(C)CC(CN1CCCCC1)N(C)c1ccnc2cc(Cl)ccc12 (stereo unspecified)
pIC50 [1]: 6.82 | pIC50 [2]: 6.38

O=C(/C=C/c1ccc(F)cc1)c1ccc(S(=O)(=O)NCCNc2cncc3cc(Cl)ccc23)cc1
pIC50 [7]: 6.24 | pIC50 [8]: 4.84

CC(C)CC(CN1CCCC1)N(C)c1ccnc2cc(C(F)(F)F)ccc12 (stereo unspecified)
pIC50 [1]: 5.91 | pIC50 [2]: 5.80 | CC50 at 72 h [3]: 52000 nM

CN(C)c1ccc(-c2cncn2CCNc2ccnc3cc(Cl)ccc23)cc1
pIC50 [5]: 5.30 | pIC50 [6]: 5.96
